Read-outs that look alike come from different tables or passages of the source. Each block holds one molecule with its values, some of them ahead of it.
Key:
Format in all cases: cell-based
[1] = system: HuH-1 cells; assay: In vitro inhibition of HuH-1, MTT assay; conditions: read-out: HuH-1: relative IC50
Method: HuH-1 cells were purchased from JCRB and tested with the following method:
Cells are suspended at a specific density in a specific culture medium (see table in 2.Cell lines).
Then, 100 μl of cell suspension are plated per well in 96-well plates.
Compounds or negative controls (DMSO) are added to the cells (100 μl of a compound solution in its specific medium with a final concentration of 0.15% DMSO).
Each compound concentration is tested in duplicate (6 concentrations per compound).
Cells are incubated at 37° C. for 72 h without treating again.
SDS is added to control wells (final concentration of 1%) and kept for 15 min at 37° C. SDS 1% represents the positive control of proliferation inhibition.
Cell supernatant is removed and 100 μl of a MTT (3-[4.5-dimethylthiazol-2-yl]-2.5-diphenyltetrazolium bromide) solution in fresh medium are added per well (MTT final concentration of 0.5 mg/ml) and incubated for 4 h at 37° C.
MTT reaction is stopped and homogenized by adding 100 μl/well of SDS 10%, 0.01M HCl and incubated for 2 h at 37° C.
Absorbance is measured at 570 nm.

[2] = system: A498; assay: In vitro inhibition, CellTiter-Glo (CTG) assay; conditions: 72 hr exposure
Method: (§1) Cells were grown in RPMI-1640 supplemented with L-Glutamine and 10% FBS of the following cell lines:
(§2) CCRF-CEM; HL-60; KG-1; CFPAC-1; MiaPACA-2; BxPC-3; HepG2; MDA-MB-231; HCT-116; A498; and NCI-H69
(§3) 18, 96 well plates of each cell line were seeded with the optimized number of cells per well in a total volume of 50 μper well. The plates were left overnight. Plate wells were seeded with 100 pt media for media control. The following day, cells were exposed to test compounds as described below. At the same time as drug exposure, a CTG assay was conducted on the 18th plate for the 0 hr count.
(§4) The compounds were added to cells and medium already on the plate to give desired final concentrations. 50 μL media were added to cell control wells, and 50 μL of mix added to vehicle control wells. 10 μM Doxorubicin was added to appropriate wells as control. Cells exposed to test compound were incubated at 37° C. for 72 hr followed by a CTG assay.
(§5) At the end of the 72 hr exposure period, plates were removed for a CellTiter-Glo (CTG) assay from a 37° C., 5% CO2 incubator and placed on the bench at room temperature for 30 mins. 100 μL of CellTiter-Glo reagent was added and mixed for 2 mins, followed by a further 10 min incubation at room temperature. Luminescence was recorded using Synergy 4.0.

[3] = system: BxPC-3; assay: In vitro inhibition, CellTiter-Glo (CTG) assay; conditions: 72 hr exposure
Method: as §1, §2, §3, §4, §5

[4] = system: CCRF-CEM; assay: In vitro inhibition, CellTiter-Glo (CTG) assay; conditions: 72 hr exposure
Method: as §1, §2, §3, §4, §5

[5] = system: CFPAC-1; assay: In vitro inhibition, CellTiter-Glo (CTG) assay; conditions: 72 hr exposure
Method: as §1, §2, §3, §4, §5

[6] = system: HCT-116; assay: In vitro inhibition, CellTiter-Glo (CTG) assay; conditions: 72 hr exposure
Method: as §1, §2, §3, §4, §5

[7] = system: HL-60; assay: In vitro inhibition, CellTiter-Glo (CTG) assay; conditions: Homo sapiens
Method: as §1, §2, §3, §4, §5

[8] = system: HepG2; assay: In vitro inhibition, CellTiter-Glo (CTG) assay; conditions: 72 hr exposure
Method: as §1, §2, §3, §4, §5

[9] = system: KG-1; assay: In vitro inhibition, CellTiter-Glo (CTG) assay
Method: as §1, §2, §3, §4, §5

[10] = system: MDA-MB-231; assay: In vitro inhibition, CellTiter-Glo (CTG) assay
Method: as §1, §2, §3, §4, §5

[11] = system: MiaPACA-2; assay: In vitro inhibition, CellTiter-Glo (CTG) assay; conditions: Homo sapiens, MIA PaCa-2, 72 h, 72 hr exposure
Method: as §1, §2, §3, §4, §5

[12] = system: NCI-H69; assay: In vitro inhibition, CellTiter-Glo (CTG) assay
Method: as §1, §2, §3, §4, §5

[13] = Homo sapiens, MDA-MB-231, 72 hr exposure

IC50 ([1]; Homo sapiens, HuH-1, 72 h): < 0.3 µM
Compound: CCOC(=O)[C@@H](C)CCO[P@]1(=O)OC[C@H]2O[C@@H](n3ccc(N)nc3=O)C(F)(F)[C@@H]2O1 (single isomer, unassigned) [Compound 122 Diastereoisomer 2]

IC50 ([1]; Homo sapiens, HuH-1, 72 h): < 0.3 µM
Compound: CCOC(=O)[C@H](C)CCO[P@]1(=O)OC[C@H]2O[C@@H](n3ccc(N)nc3=O)C(F)(F)[C@@H]2O1 (single isomer, unassigned) [Compound 123 Diastereoisomer 2]

IC50 ([1]; Homo sapiens, HuH-1, 72 h): < 0.3 µM
Compound: CC(C)OC(=O)[C@H](C)CCO[P@]1(=O)OC[C@H]2O[C@@H](n3ccc(N)nc3=O)C(F)(F)[C@@H]2O1 (single isomer, unassigned) [Compound 120 Diastereoisomer 1]

IC50 ([1]; Homo sapiens, HuH-1, 72 h): < 0.3 µM
Compound: CC(C)OC(=O)[C@@H](C)CCO[P@]1(=O)OC[C@H]2O[C@@H](n3ccc(N)nc3=O)C(F)(F)[C@@H]2O1 (single isomer, unassigned) [Compound 121 Diastereoisomer 1]

IC50 ([3]; Homo sapiens, BXPC-3, 72 h): 10 to 100 µM
IC50 [4]: 10 to 100 µM
IC50 ([6]; Homo sapiens, HCT-116, 72 h): 10 to 100 µM
IC50 ([7]; HL-60, 72 h, 72 hr exposure): 1 to 10 µM
IC50 [8]: 10 to 100 µM
IC50 [10, 13]: 10 to 100 µM
IC50 [11]: 10 to 100 µM
IC50 ([12]; Homo sapiens, NCI-H69, 72 h, 72 hr exposure): 10 to 100 µM
Compound: Cn1c(COP(=O)(NCc2ccccc2)OC[C@H]2O[C@@H](n3ccc(N)nc3=O)C(F)(F)[C@@H]2O)cnc1[N+](=O)[O-] (single isomer, unassigned) [112 (diastereomer 1)]
IC50 ([2]; Homo sapiens, A498, 72 h): 10 to 100 µM
IC50 [5]: 10 to 100 µM
IC50 ([9]; 72 hr exposure): 10 to 100 µM

IC50 ([1]; Homo sapiens, HuH-1, 72 h): < 0.3 µM
Compound: CC(C)OC(=O)[C@@H](C)CCO[P@@]1(=O)OC[C@H]2O[C@@H](n3ccc(N)nc3=O)C(F)(F)[C@@H]2O1 (single isomer, unassigned) [Compound 121 Diastereoisomer 2]

Compound: CCOC(=O)[C@H](C)CCO[P@@]1(=O)OC[C@H]2O[C@@H](n3ccc(N)nc3=O)C(F)(F)[C@@H]2O1 (single isomer, unassigned; diastereoisomer 1) [Compound 123 Diastereoisomer 1]
IC50 ([1]; 72 h): < 0.3 µM

IC50 [3]: 10 to 100 µM
IC50 [6]: 10 to 100 µM
IC50 ([8]; Homo sapiens, HepG2, 72 h): 1 to 10 µM
IC50 ([10]; 72 hr exposure): 10 to 100 µM
IC50 [11]: 1 to 10 µM
IC50 ([12]; 72 hr exposure): 10 to 100 µM
IC50 ([1]; Homo sapiens, HuH-1, 72 h): ≥ 0.3 µM
Compound: CC(C)OP1(=O)OC[C@H]2O[C@@H](n3ccc(N)nc3=O)C(F)(F)[C@@H]2O1 (single isomer, unassigned) [Compound 102 (diastereomer 1)]
IC50 [2]: 10 to 100 µM
IC50 ([5]; Homo sapiens, CFPAC-1, 72 h): 1 to 10 µM

Compound: CC(C)OC(=O)[C@H](C)NP1(=O)OC[C@H]2O[C@@H](n3ccc(N)nc3=O)C(F)(F)[C@@H]2O1 (single isomer, unassigned) [103 (diastereomer 1)]
IC50 ([2]; Homo sapiens, A498, 72 h): 10 to 100 µM
IC50 [3]: 10 to 100 µM
IC50 ([4]; Homo sapiens, CCRF-CEM): < 1 µM
IC50 ([5]; Homo sapiens, CFPAC-1, 72 h): < 1 µM
IC50 ([6]; Homo sapiens, HCT-116, 72 h): 1 to 10 µM
IC50 ([7]; HL-60, 72 hr exposure): < 1 µM
IC50 ([8]; Homo sapiens, HepG2, 72 h): < 1 µM
IC50 ([9]; Homo sapiens, KG-1, 72 hr exposure): < 1 µM
IC50 [10, 13]: 10 to 100 µM
IC50 [11]: 1 to 10 µM
IC50 ([12]; Homo sapiens, NCI-H69, 72 hr exposure): 10 to 100 µM
